Experimental findings from patent US9963462B2 (priority 2015, dated 2018) are described below.

Assay [1] addresses SNAP-hSPR (sepiapterin reductase, SPR) (Homo sapiens, UniProt P35270). Nature of the assay: biochemical. The assay is classed as binding. As to conditions: terbium labelled SNAP-hSPR / SSZ labelled SNAP-EGFP; read-out: hTR-FRET IC50.
In assay [2] the test system is BH4 levels in SK-N-BE (2) cells. Nature of the assay: SKN-N-BE (2) cellular assay, BH4 levels by LC-MS. Format: cell-based. Particulars: Homo sapiens, SKNBE2, read-out: SK-N-BE(2) IC50, SK-N-BE (2) cells, BH4 levels by LC-MS.

Structures are written as SMILES.

Chain of SNAP-hSPR (sepiapterin reductase, SPR) (P35270 whole entry): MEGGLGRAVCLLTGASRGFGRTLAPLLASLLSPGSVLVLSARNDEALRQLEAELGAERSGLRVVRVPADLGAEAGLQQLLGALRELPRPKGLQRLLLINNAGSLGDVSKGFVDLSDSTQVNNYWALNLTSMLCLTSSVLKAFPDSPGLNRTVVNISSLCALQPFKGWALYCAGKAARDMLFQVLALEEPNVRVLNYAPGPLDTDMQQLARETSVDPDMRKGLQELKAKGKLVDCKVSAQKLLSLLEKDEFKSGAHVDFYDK

Consider `O=C(c1cnn(-c2nc3ccsc3c(=O)[nH]2)c1)N1CCC(S(=O)(=O)c2ccccc2)CC1` [Q-0524], for which the concentration for half-maximal inhibition (IC50) (as a rule, the point on the concentration scale where inhibition reaches its midpoint) in assay [1] was found to be 0.004 µM; in assay [2], 1.1 µM.

As to `O=C(c1cnn(-c2nc3c(c(=O)[nH]2)CCC3)c1)N1CCC(C(F)(F)F)CC1` [Q-0526, 2-{4-[4-(trifluoromethyl)piperidine-1-carbonyl]-1H-pyrazol-1-yl}-3H,4H,5H,6H,7H-cyclopenta[d]pyrimidin-4-one], the results for the IC50 in assay [1] and in assay [2] were 0.003 µM and 0.028 µM, respectively.

Consider `O=C(c1cnn(-c2nc3ccsc3c(=O)[nH]2)c1)N1CCC(c2c[nH]c3ccccc23)CC1` [Q-0527], for which the IC50 in assay [1] was 0.03 µM; in assay [2], 0.045 µM.

On to `O=C(c1cnn(-c2nc3ccsc3c(=O)[nH]2)c1)N1CCC(c2nc3ccccc3s2)CC1` [Q-0528], for which the figures for the concentration for half-maximal inhibition (IC50) in assay [1] and in assay [2] were 0.07 µM and 0.8 µM, respectively.

As for `O=c1[nH]c(-n2cc(OC3CCCC3)cn2)nc2c1CCC2` [Q-0529], the results for the IC50 in assay [1] and in assay [2] were 0.01 µM and 0.1 µM, respectively.

As for `O=C(c1cnc(-c2nc3ccsc3c(=O)[nH]2)s1)N1CCC(C(F)(F)F)CC1` [Q-0530], the results for the IC50 in assay [1] and in assay [2] were 0.03 µM and 1.8 µM, respectively.

With `Cc1c(C(=O)N2CCC(C(C)(C)C#N)CC2)cnn1-c1nc2ccsc2c(=O)[nH]1` [Q-0531], the 50% inhibitory concentration (IC50) in assay [1] came to 0.004 µM; in assay [2], 0.062 µM.

As to `Cc1c(C(=O)Nc2ccccc2N2CCOCC2)cnn1-c1nc2c(c(=O)[nH]1)CCC2` [Q-0532], the 50% inhibitory concentration (IC50) in assay [1] came to 0.02 µM; in assay [2] it was 0.044 µM.

For the compound `N#CC1(c2ccccc2)CCN(C(=O)c2cnn(-c3nn4cccc4c(=O)[nH]3)c2)CC1` [Q-0534], the IC50 was 0.003 µM in assay [1] and 0.1 µM in assay [2].

For `O=C(c1cnn(-c2nn3cccc3c(=O)[nH]2)c1)N1CCC(S(=O)(=O)c2ccccc2)CC1` [Q-0535], the IC50 in assay [1] was determined as 0.004 µM; in assay [2], 0.4 µM.

Turning to `O=C(c1cnn(-c2nn3cccc3c(=O)[nH]2)c1)N1CCC(c2c[nH]c3ccccc23)CC1` [Q-0536], the half-maximal inhibitory concentration (IC50) stood at 0.007 µM in assay [1] and 0.059 µM in assay [2].

For `O=C(c1cnn(-c2nn3cccc3c(=O)[nH]2)c1)N1CCC(c2nc3ccccc3s2)CC1` [Q-0537], the IC50 was 0.04 µM in assay [1] and 0.2 µM in assay [2].

As to `Cc1c(C(=O)N2CCC(C(F)(F)F)CC2)cnn1-c1nn2cc(F)cc2c(=O)[nH]1` [Q-0543], the 50% inhibitory concentration (IC50) was determined as 0.003 µM in assay [1] and 0.4 µM in assay [2].

Consider `Cc1c(C(=O)N2CCN(c3ccccc3)CC2)cnn1-c1nc2c(c(=O)[nH]1)CCC2` [Q-0545], for which the IC50 in assay [1] was found to be 0.002 µM; in assay [2], 0.041 µM.

With `O=C(c1cnn(-c2nc3c(c(=O)[nH]2)CCC3)c1C1CC1)N1CCC(c2nc3ccccc3s2)CC1` [Q-0546], the IC50 in assay [1] came out at 0.009 µM; in assay [2] it was 0.084 µM.

Regarding `O=C(O)c1ccnc(-c2nc3ccsc3c(=O)[nH]2)c1` [Q-0547], the IC50 in assay [1] was 2.3 µM; in assay [2], 10 µM.

With `O=C(c1ccnc(-c2nc3ccsc3c(=O)[nH]2)c1)N1CCC(c2nc3ccccc3s2)CC1` [Q-0548], the 50% inhibitory concentration (IC50) was determined as 0.02 µM in assay [1] and 2.1 µM in assay [2].

On to `Cc1c(C(=O)N2CC[C@@H](N(C)C(=O)OC(C)(C)C)C2)cnn1-c1nc2ccsc2c(=O)[nH]1` [Q-0549], for which the IC50 in assay [1] came out at 0.004 µM; in assay [2] it was 0.4 µM.

`Cc1c(C(=O)N2CCC(C#N)(c3ccccc3)CC2)cnn1-c1nc2ccsc2c(=O)[nH]1` [Q-0550]: the 50% inhibitory concentration (IC50) in assay [1] amounted to 0.002 µM; in assay [2], 0.1 µM.

For `Cc1c(C(=O)N2CCC3(CCCN3Cc3ccccc3)C2)cnn1-c1nc2c(c(=O)[nH]1)CCC2` (centres unmarked) [Q-0551], the values for the half-maximal inhibitory concentration (IC50) in assay [1] and in assay [2] were 0.006 µM and 0.5 µM, respectively.

For `Cc1c(C(=O)N2CCC3(CCCCN3C(=O)OC(C)(C)C)C2)cnn1-c1nc2c(c(=O)[nH]1)CCC2` (centres unmarked) [Q-0552], the half-inhibitory concentration (IC50) was 0.007 µM in assay [1] and 0.038 µM in assay [2].

As to `CC(C)(C#N)C1CCN(C(=O)c2cnn(-c3nc4c(c(=O)[nH]3)CCC4)c2C2CC2)CC1` [Q-0553], the results for the IC50 in assay [1] and in assay [2] were 0.006 µM and 0.2 µM, respectively.

`O=C(c1ccnc(-c2nc3ccsc3c(=O)[nH]2)c1)N1CCC(c2c[nH]c3ccccc23)CC1` [Q-0555]: the values for the IC50 in assay [1] and in assay [2] were 0.02 µM and 0.7 µM, respectively.

Take `Cc1c(C(=O)N2CCN3CCC[C@@H]3C2)cnn1-c1nc2ccsc2c(=O)[nH]1` [Q-0556]: the IC50 in assay [1] came to 0.007 µM; in assay [2] it was 0.6 µM.

As for `Cc1c(C(=O)N2CCC3OCCCC3C2)cnn1-c1nc2ccsc2c(=O)[nH]1` (centres unmarked) [Q-0557], the values for the IC50 in assay [1] and in assay [2] were 0.008 µM and 0.6 µM, respectively.

In the case of `O=C(O)c1ccnc(-c2nc3c(c(=O)[nH]2)CCC3)c1` [Q-0558], the figures for the IC50 in assay [1] and in assay [2] were 5 µM and 10 µM, respectively.

Take `Cc1c(C(=O)N2CCC(c3nc4ccccc4s3)CC2)cnn1-c1nc2ccsc2c(=O)[nH]1` [Q-0559]: the 50% inhibitory concentration (IC50) was determined as 0.007 µM in assay [1] and 0.038 µM in assay [2].

`Cc1c(C(=O)N2CCC(c3c[nH]c4ccccc34)CC2)cnn1-c1nc2ccsc2c(=O)[nH]1` [Q-0560]: the half-inhibitory concentration (IC50) in assay [1] worked out at 0.003 µM; in assay [2], 0.012 µM.

Turning to `Cc1c(C(=O)N2CCC(C#N)(c3ccccc3)CC2)cnn1-c1nc2sccc2c(=O)[nH]1` [Q-0561], the half-inhibitory concentration (IC50) amounted to 0.004 µM in assay [1] and 0.011 µM in assay [2].

Take `CCC1(C#N)CCN(C(=O)c2cnn(-c3nc4ccsc4c(=O)[nH]3)c2C)CC1` [Q-0562]: the results for the half-maximal inhibitory concentration (IC50) in assay [1] and in assay [2] were 0.004 µM and 0.2 µM, respectively.

Consider `CCC1(C#N)CCN(C(=O)c2cnn(-c3nc4sccc4c(=O)[nH]3)c2C)CC1` [Q-0563], for which the IC50 in assay [1] came to 0.005 µM; in assay [2], 0.3 µM.

Take `Cc1c(C(=O)N2CCC(C(F)(F)F)CC2)ccnc1-c1nc2ccsc2c(=O)[nH]1` [Q-0564]: the IC50 in assay [1] worked out at 0.2 µM; in assay [2], 4 µM.

In the case of `Cc1c(C(=O)N2CCC(c3c[nH]c4cc(F)ccc34)CC2)cnn1-c1nc2c(c(=O)[nH]1)CCC2` [Q-0565], the half-inhibitory concentration (IC50) in assay [1] was found to be 0.006 µM; in assay [2], 0.011 µM.

Turning to `O=C(O)c1ccnc(-c2nc3sccc3c(=O)[nH]2)c1` [Q-0566], the values for the half-maximal inhibitory concentration (IC50) in assay [1] and in assay [2] were 5 µM and 10 µM, respectively.

For the compound `Cc1c(C(=O)N2CCN(c3ccc(F)cc3F)CC2)cnn1-c1nc2c(c(=O)[nH]1)CCC2` [Q-0567], the IC50 amounted to 0.003 µM in assay [1] and 0.02 µM in assay [2].

In the case of `Cc1c(C(=O)N2CC(CNC(=O)OC(C)(C)C)C2)cnn1-c1nc2c(c(=O)[nH]1)CCC2` [Q-0568], the 50% inhibitory concentration (IC50) came to 0.006 µM in assay [1] and 0.2 µM in assay [2].

`Cc1c(C(=O)N2CC3COCC(C3)C2)cnn1-c1nc2c(c(=O)[nH]1)CCC2` [Q-0569]: the 50% inhibitory concentration (IC50) in assay [1] was determined as 0.01 µM; in assay [2], 0.3 µM.

`Cc1c(C(=O)N2CCN(c3ccccc3Cl)CC2)cnn1-c1nc2c(c(=O)[nH]1)CCC2` [Q-0570]: the IC50 in assay [1] came to 0.003 µM; in assay [2], 0.023 µM.

`Cc1c(C(=O)N2CCC(c3c[nH]c4ccccc34)CC2)cnn1-c1nc2sccc2c(=O)[nH]1` [Q-0573]: the values for the half-maximal inhibitory concentration (IC50) in assay [1] and in assay [2] were 0.003 µM and 0.035 µM, respectively.

Consider `Cc1c(C(=O)N2CCC(c3nc4ccccc4s3)CC2)cnn1-c1nc2sccc2c(=O)[nH]1` [Q-0574], for which the IC50 was 0.006 µM in assay [1] and 0.047 µM in assay [2].

`Cc1c(C(=O)N2CCN3CCC[C@@H]3C2)cnn1-c1nc2c(c(=O)[nH]1)CCC2` [Q-0575]: the results for the IC50 in assay [1] and in assay [2] were 0.003 µM and 0.2 µM, respectively.

Consider `Cc1c(C(=O)N2CCC3OCCCC3C2)cnn1-c1nc2c(c(=O)[nH]1)CCC2` (centres unmarked) [Q-0576], for which the IC50 amounted to 0.006 µM in assay [1] and 0.1 µM in assay [2].

With `Cc1c(C(=O)N2CCC3(CCCCN3)C2)cnn1-c1nc2c(c(=O)[nH]1)CCC2` (centres unmarked) [Q-0577, 2-(5-methyl-4-(2,6-diazaspiro[4.5]decane-2-carbonyl)-1H-pyrazol-1-yl)-6,7-dihydro-3H-cyclopenta[d]pyrimidin-4(5H)-one], the IC50 in assay [1] was 0.04 µM; in assay [2] it was 2.1 µM.

For the compound `CC(C#N)C1CCN(C(=O)c2cnn(-c3nc4c(c(=O)[nH]3)CCC4)c2C2CC2)CC1` (centres unmarked) [Q-0578], the concentration for half-maximal inhibition (IC50) came out at 0.008 µM in assay [1] and 0.7 µM in assay [2].

As to `Cc1c(C(=O)N2CCC3(CCCCN3C(=O)OC(C)(C)C)C2)cnn1-c1nc2ccsc2c(=O)[nH]1` (centres unmarked) [Q-0579], the concentration for half-maximal inhibition (IC50) in assay [1] was found to be 0.005 µM; in assay [2], 0.1 µM.

With `Cc1c(C(=O)N2CCC(C(C)(C)C)CC2)cnn1-c1nc2c(c(=O)[nH]1)CCC2` [Q-0580], the concentration for half-maximal inhibition (IC50) in assay [1] is 0.003 µM; in assay [2], 0.022 µM.

As to `Cc1c(C(=O)N2CC(CNC(=O)OC(C)(C)C)C2)cnn1-c1nc2ccsc2c(=O)[nH]1` [Q-0582], the IC50 in assay [1] was 0.02 µM; in assay [2] it was 1 µM.

Turning to `Cc1c(C(=O)N2CC(CN)C2)cnn1-c1nc2ccsc2c(=O)[nH]1` [Q-0583], the IC50 in assay [1] was determined as 0.1 µM; in assay [2], 3.7 µM.

Take `CN[C@@H]1CCN(C(=O)c2cnn(-c3nc4ccsc4c(=O)[nH]3)c2C)C1` [Q-0584]: the IC50 in assay [1] was 0.2 µM; in assay [2] it was 10 µM.

Turning to `Cc1c(C(=O)N2CCC(c3c[nH]c4ccccc34)CC2)cnn1-c1nn2cccc2c(=O)[nH]1` [Q-0585], the results for the IC50 in assay [1] and in assay [2] were 0.006 µM and 0.033 µM, respectively.

Regarding `Cc1c(C(=O)N2CCC(c3nc4cc(F)ccc4s3)CC2)cnn1-c1nc2c(c(=O)[nH]1)CCC2` [Q-0587], the IC50 is 0.01 µM in assay [1] and 0.021 µM in assay [2].

As for `CN[C@@H]1CCN(C(=O)c2cnn(-c3nc4c(c(=O)[nH]3)CCC4)c2C)C1` [Q-0588], the IC50 came to 0.07 µM in assay [1] and 4.7 µM in assay [2].

Consider `Cc1c(C(=O)N2CC(CN)C2)cnn1-c1nc2c(c(=O)[nH]1)CCC2` [Q-0589], for which the IC50 in assay [1] worked out at 0.06 µM; in assay [2], 1.7 µM.

As for `Cc1c(C(=O)N2CCC(c3nc4ccc(F)cc4s3)CC2)cnn1-c1nc2c(c(=O)[nH]1)CCC2` [Q-0590], the IC50 is 0.003 µM in assay [1] and 0.015 µM in assay [2].

With `Cc1c(C(=O)N2CCC(c3cn(C)c4ccccc34)CC2)cnn1-c1nc2c(c(=O)[nH]1)CCC2` [Q-0592], the values for the IC50 in assay [1] and in assay [2] were 0.02 µM and 0.076 µM, respectively.
